The source of these data is US20250368627A1, “PYRAZOLESULFONAMIDES AS ANTITUMOR AGENTS” (Peloton Therapeutics, Inc., a fully owned subsidiary of …, priority 2019, published 2025).

Usually IC50 stands for the concentration that inhibits the measured activity by half. Usually EC50 stands for the midpoint of the concentration-response curve.

The target in data set [1] is T1, DDB1DB/DCAF15 and RBM39 R1R2 complex (Homo sapiens, UniProt Q14498+Q66K64).
T1 construct: Amino acids 150 to 331 of RBM39 were cloned into pGEX4T3; GST (from vector pGEX4T3); TEV cleavage site (N); made in house; host or cells: DDB1DB/His-DCAF15: baculovirus/Sf9 co-expression; RBM39 R1R2: E. coli (pGEX4T3)
T1 sequence (Q66K64 whole entry, the tested form may be a part): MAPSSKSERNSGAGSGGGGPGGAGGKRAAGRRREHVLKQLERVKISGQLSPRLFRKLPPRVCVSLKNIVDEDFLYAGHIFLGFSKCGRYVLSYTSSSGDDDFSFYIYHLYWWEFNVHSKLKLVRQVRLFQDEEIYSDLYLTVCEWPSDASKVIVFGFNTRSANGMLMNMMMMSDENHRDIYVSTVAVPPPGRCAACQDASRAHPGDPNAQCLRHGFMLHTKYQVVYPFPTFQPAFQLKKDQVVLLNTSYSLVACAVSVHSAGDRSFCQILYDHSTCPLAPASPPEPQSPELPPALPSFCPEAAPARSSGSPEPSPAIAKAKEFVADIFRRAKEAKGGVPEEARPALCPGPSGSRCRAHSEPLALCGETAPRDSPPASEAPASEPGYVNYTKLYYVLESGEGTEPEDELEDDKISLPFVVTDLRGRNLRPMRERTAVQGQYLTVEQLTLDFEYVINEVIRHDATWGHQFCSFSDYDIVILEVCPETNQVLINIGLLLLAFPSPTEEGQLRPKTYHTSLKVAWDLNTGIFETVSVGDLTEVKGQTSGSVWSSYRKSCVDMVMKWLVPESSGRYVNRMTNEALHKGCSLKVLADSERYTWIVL
T1 sequence (Q14498 150-331): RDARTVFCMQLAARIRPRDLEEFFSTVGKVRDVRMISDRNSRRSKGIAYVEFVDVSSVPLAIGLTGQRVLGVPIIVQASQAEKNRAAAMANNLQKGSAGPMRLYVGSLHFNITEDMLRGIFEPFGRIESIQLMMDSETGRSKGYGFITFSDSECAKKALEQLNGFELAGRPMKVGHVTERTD
T1 sequence (Q16531 with tags, fused parts or gaps DEL396-708 partner): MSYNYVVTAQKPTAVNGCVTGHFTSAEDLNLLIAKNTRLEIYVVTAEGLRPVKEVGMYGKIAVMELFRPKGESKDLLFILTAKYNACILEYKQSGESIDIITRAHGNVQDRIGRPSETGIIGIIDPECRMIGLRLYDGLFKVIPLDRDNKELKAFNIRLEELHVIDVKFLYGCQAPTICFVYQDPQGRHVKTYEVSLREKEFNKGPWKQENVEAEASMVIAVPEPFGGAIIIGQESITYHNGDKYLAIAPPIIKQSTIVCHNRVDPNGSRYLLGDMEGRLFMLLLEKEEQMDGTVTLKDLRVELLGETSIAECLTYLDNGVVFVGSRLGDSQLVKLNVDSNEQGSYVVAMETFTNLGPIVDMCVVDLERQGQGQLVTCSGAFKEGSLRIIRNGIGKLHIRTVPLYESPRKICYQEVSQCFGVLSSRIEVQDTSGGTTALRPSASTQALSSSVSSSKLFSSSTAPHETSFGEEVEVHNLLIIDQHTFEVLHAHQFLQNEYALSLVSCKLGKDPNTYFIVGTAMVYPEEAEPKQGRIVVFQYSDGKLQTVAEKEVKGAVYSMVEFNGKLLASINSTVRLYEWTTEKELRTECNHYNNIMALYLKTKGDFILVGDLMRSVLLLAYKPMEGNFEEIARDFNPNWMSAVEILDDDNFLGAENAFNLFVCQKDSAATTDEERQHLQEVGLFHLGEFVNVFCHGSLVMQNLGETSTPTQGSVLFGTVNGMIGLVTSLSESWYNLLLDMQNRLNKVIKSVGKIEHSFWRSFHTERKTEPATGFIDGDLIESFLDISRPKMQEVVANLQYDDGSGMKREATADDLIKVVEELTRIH
Description: DCAF15 RBM39 Complex Formation Assay (FRET). The format is binding. As to conditions: FRET ratio Em 665/Em 615, incubated overnight at 4° C. The gist of the method:
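Ternary complex formation read by TR-FRET (Em 665/615, excitation 340 nm) after overnight incubation at 4° C of 20 nM baculovirus DDB1DB/His-DCAF15 and 50 nM E. coli RBM39 RRM1-RRM2 FLAG fragment with 14-point, 3-fold compound dilutions from 1 μM; EC50 from 4-parameter fit.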

Data set [2] concerns HCT116 colorectal carcinoma cells. As to the kind of experiment: In vivo efficacy study, HCT116 xenograft. Particulars: for Body Weight (g) Mean ± SEM / Tumor Volume (mm^3) Mean ± SEM / Tumor Weight (g) Mean ± SD: HCT116 xenograft mice; for body weight versus vehicle group / reduction of tumor volume and tumor weight: HCT116 mouse model, compound 3 100 mg/kg BID, compound 136 30 mg/kg BID, 12 days; for reduction of tumor volume and tumor weight: versus vehicle. Details: species or system Athymic Nude mice. The source says: Compound 3 were formulated with 10% absolute ethanol, 30% PEG400, 60% water containing 0.5% methyl cellulose and 0.5% Tween80®. 2×10^6 HCT116 colorectal carcinoma cells (ATCC® CCL-247) in PBS and Matrigel (1:1 in volume) were inoculated subcutaneously in the right flank of Athymic Nude mice at 6-7 weeks of age for tumor development. When the xenografts reached about 150 mm^3 in size, the tumor bearing mice were randomly grouped into six groups (n=6) and treated by oral gavage with vehicle (10% absolute ethanol, 30% PEG400, 60% water containing 0.5% methyl cellulose and 0.5% Tween80®, BID) or compound 3 at 100 mg/kg BID for 12 days. Tumor sizes were measured twice weekly in two dimensions using a caliper and the volume were expressed in mm^3 using the formula V=0.5×a×b^2 wherein a and b were the long and short diameters of the tumor, respectively. The efficacy study for compound 136 was carried out in the same manner as that of compound 3 except compound 136 was dosed at 30 mg/kg BID for 12 days.

In data set [3] the test system is HCT116 human colorectal carcinoma cells. Description: CellTiter-Glo Luminescent Cell Viability Assay. Particulars: HCT-116, 72 h, 3 days. The format is cell-based. The essentials: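 CellTiter-Glo luminescence gave viability after 3 days of compound exposure in HCT116 cells grown in DMEM/10% FBS. Final concentrations ran from 5 to 0.0002 […] in 1:3 steps, each in triplicate, with IC50 derived from the curves.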

The conditions of data set [4]: cited from earlier work.
The conditions of data set [5]: cited from earlier work; for treatment-induced myelosuppressive effect: clinical dosing, indisulam 700 mg/m^2 IV every 3 weeks, E7820 100 mg q.d. oral; for oral bioavailability: in vivo.
Setting [6] is: 100 mg/kg BID oral gavage for 12 days.
Setting [7] is: 30 mg/kg BID oral gavage for 12 days.

SMILES strings stand for the structures.

Regarding `Cc1ccc(NS(=O)(=O)c2cnn(C)c2)c2[nH]cc(C#N)c12` [Compound 3, N-(3-cyano-4-methyl-1H-indol-7-yl)-1-methyl-pyrazole-4-sulfonamide], the concentration for half-maximal inhibition (IC50) in data set [1] is less than 250 nM. Besides, in data set [2] (setting [6]), the “Body Weight (g) Mean ± SEM” value amounted to 22.44 ± 0.16 g, the “Tumor Volume (mm^3) Mean ± SEM” value worked out at 122.9 ± 33.9 mm^3 and the “Tumor Weight (g) Mean ± SD” value was “.013 ± 0.005 g”. Besides, in data set [2], the “body weight versus vehicle group” value is given as “no significant difference”; the “reduction of tumor volume and tumor weight” value was “statistically significant reduction”. Also, the EC50 in data set [3] lay within 250 to 1000 nM.

As to `CC(C)(O)Cn1cc(S(=O)(=O)Nc2ccc(Cl)c3c(C#N)c[nH]c23)cn1` [Compound 136, N-(4-chloro-3-cyano-1H-indol-7-yl)-1-(2-hydroxy-2-methyl-propyl)pyrazole-4-sulfonamide], the 50% inhibitory concentration (IC50) in data set [1] was less than 250 nM. Besides, in data set [2] (setting [7]), the “Body Weight (g) Mean ± SEM” value worked out at 21.4 ± 0.14 g, the “Tumor Volume (mm^3) Mean ± SEM” value is listed as 175.7 ± 12.3 mm^3 and the “Tumor Weight (g) Mean ± SD” value is on record as “.083 ± 0.06 g”. In data set [2], the “body weight versus vehicle group” value is given as “no significant difference”; the “reduction of tumor volume and tumor weight” value is given as “statistically significant reduction”. Also, in data set [3], the EC50 lay within 250 to 1000 nM.

Take `Cc1ccc(NS(=O)(=O)c2cnn([C@H](C)CO)c2N)c2[nH]cc(C#N)c12` [Compound 303, 5-amino-N-(3-cyano-4-methyl-1H-indol-7-yl)-1-[(1R)-2-hydroxy-1-methyl-ethyl]pyrazole-4-sulfonamide]: in data set [1], the IC50 is less than 250 nM. In data set [3], the EC50 was less than 250 nM.

As for `Cc1ccc(NS(=O)(=O)c2cnn(C)c2N)c2[nH]nc(C#N)c12` [Compound 304, 5-amino-N-(3-cyano-4-methyl-1H-indazol-7-yl)-1-methyl-pyrazol-4-sulfonamide], the IC50 in data set [1] was less than 250 nM. For the same compound, in data set [3], the EC50 was less than 250 nM.

`Cc1ccc(NS(=O)(=O)c2cnn(CF)c2)c2[nH]nc(C#N)c12` [Compound 305, N-(3-cyano-4-methyl-1H-indazol-7-yl)-1-(fluoromethyl)pyrazole-4-sulfonamide]: the IC50 in data set [1] is less than 250 nM. Besides, the EC50 in data set [3] is 250 to 1000 nM.

Consider `C[C@H](CO)n1ncc(S(=O)(=O)Nc2ccc(Cl)c3c(C#N)c[nH]c23)c1N` [Compound 306, 5-amino-N-(4-chloro-3-cyano-1H-indol-7-yl)-1-[(1R)-2-hydroxy-1-methyl-ethyl]pyrazole-4-sulfonamide], for which, in data set [1], the IC50 is less than 250 nM. Moreover, in data set [3], the half-maximal effective concentration (EC50) lay within 250 to 1000 nM.

As to `Cn1ncc(S(=O)(=O)Nc2ccc(Cl)c3c(C#N)n[nH]c23)c1N` [Compound 307, 5-amino-N-(4-chloro-3-cyano-1H-indazol-7-yl)-1-methyl-pyrazole-4-sulfonamide], the half-inhibitory concentration (IC50) in data set [1] is less than 250 nM. In addition, the EC50 in data set [3] is greater than 1000 nM.

Consider `Cc1ccc(NS(=O)(=O)c2cnn(CF)c2N)c2[nH]cc(C#N)c12` [Compound 308, 5-amino-N-(3-cyano-4-methyl-1H-indol-7-yl)-1-(fluoromethyl)pyrazole-4-sulfonamide], for which the IC50 in data set [1] is less than 250 nM. Moreover, the EC50 in data set [3] lay within 250 to 1000 nM.

On to `N#Cc1c[nH]c2c(NS(=O)(=O)c3cnn(CF)c3N)ccc(F)c12` [Compound 309, 5-amino-N-(3-cyano-4-fluoro-1H-indol-7-yl)-1-(fluoromethyl)pyrazole-4-sulfonamide], for which the IC50 in data set [1] was less than 250 nM. Moreover, the EC50 in data set [3] was greater than 1000 nM.

On to `N#Cc1c[nH]c2c(NS(=O)(=O)c3cnn([C@H](CO)CF)c3)ccc(Cl)c12` [Compound 311, N-(4-chloro-3-cyano-1H-indol-7-yl)-1-[(1R)-1-(fluoromethyl)-2-hydroxy-ethyl]pyrazole-4-sulfonamide], for which the IC50 in data set [1] is less than 250 nM. Further, the EC50 in data set [3] lay in the range of 250 to 1000 nM.

For `N#Cc1c[nH]c2c(NS(=O)(=O)c3cnn(CF)c3N)cccc12` [Compound 312, 5-amino-N-(3-cyano-1H-indol-7-yl)-1-(fluoromethyl)pyrazole-4-sulfonamide], in data set [1], the IC50 is less than 250 nM. Besides, the EC50 in data set [3] was greater than 1000 nM.

With `Cc1ccc(NS(=O)(=O)c2cccc(C#N)c2)c2[nH]cc(C#N)c12` [Compound E7820, E7820], the “measured drug concentration available (free drug)” value in data set [4] (according to the free drug principle) was “less than 1%”. For the same compound, the plasma protein binding result in data set [4] is given as “greater than 99%”. Also, in data set [5], the treatment-induced myelosuppressive effect result is “same myelosuppressive effects” and the oral bioavailability result was “good oral bioavailability”.

Regarding `NS(=O)(=O)c1ccc(S(=O)(=O)Nc2cccc3c(Cl)c[nH]c23)cc1` [Indisulam, indisulam], in data set [5], the treatment-induced myelosuppressive effect result was “treatment-induced myelosuppressive effect” and the oral bioavailability result was “poor oral bioavailability”.
